# US7161064B2, “Method for producing stably transformed duckweed using microprojectile bombardment” (North Carolina State University, priority 1997, dated 2007)
# Key:
# [1] = system: L. minor strains 8744 and 8627; experiment: Callus induction from Lemna minor fronds, auxin and cytokinin type and concentration; assay type: cell-based; conditions: MS medium, 6 weeks
# Protocol: In the auxin type and concentration experiment, four auxins: 2,4-D, NAA, IBA and dicamba were tested, each at four concentrations: 2, 5, 10 and 20 μM, for their ability to induce callus formation from L. minor strains 8744 and 8627. The basal medium used was MS and media and experimental protocol was basically that followed in Example 10. Fronds used in this experiment were grown for 2 weeks prior to plating on callus induction medium under 3 different culture conditions: 1) SH medium without plant growth regulators, 2) F medium with 24 μM 2,4-D and 2 μM 2-iP, and 3) SH medium with 24 μM 2,4-D and 2 μM 2-iP. Fronds were separated, the roots cut off and then plated on induction medium. The fronds were incubated under conditions given in Example 8 for 6 weeks at which time cultures were evaluated for the presence or absence of callus induction, the degree to which the callus proliferated, and the basic morphology of the callus present.
# In the cytokinin type and concentration experiment, four cytokinins: BA, kinetin, 2-iP, and thidiazuron were tested, each at five concentrations: 0.05, 0.1, 0.5, 1 and 5 μM, for their ability to induce callus formation from L. minor strains 8744 and 8627. The basal medium used was MS and the media and experimental protocol were basically as described in Example 11. Fronds used in this experiment were grown for 2 weeks prior to plating on callus induction medium under 3 different culture conditions: 1) SH medium without plant growth regulators, 2) F medium with 24 μM 2,4-D and 2 μM 2-iP, and 3) SH medium with 24 μM 2,4-D and 2 μM 2-iP. Fronds were separated, the roots cut off and then plated on induction medium. The fronds were incubated under conditions given in Example 8 for 6 weeks at which time cultures were evaluated for the presence or absence of callus induction, the degree to which the callus proliferated, and the basic morphology of the callus.
# [2] = system: L. minor callus cultures, strain 8744 and strain 8627; experiment: Frond regeneration from L. minor callus cultures; assay type: cell-based, Lemna minor; conditions: 8 weeks
# Protocol: The effect of medium composition on frond regeneration from L. minor callus cultures was also tested. Seven media formulations were tested: (1) water agar, (2) water agar with 100 μM adenine sulfate, (3) water agar with 10 μM BA, (4) water agar with 10 μM BA and 1 μM IBA, (5) half-strength SH, (6) half-strength SH with 10 μM BA, and (7) half-strength SH with 10 μM BA and 1 μM IBA. […] Callus was incubated on the seven different media for 8 weeks, with continual observation for the development of fronds.
# Lemna gibba G3 [3] = experiment: GUS expression in fronds after co-cultivation with Agrobacterium tumefaciens AT656 (histochemical staining); assay type: cell-based
# Protocol: Duckweed fronds were grown on liquid Schenk and Hildebrandt medium containing 1% sucrose with and without 10 μM indoleacetic acid (IAA), a concentration sufficient to increase proliferation rate. Fronds were grown in 25 ml aliquots of medium in 125 ml flasks, at 23° C. under a 16 hr light/8 hr dark photoperiod with light intensity of approximately 40 μmol/m^2·sec. For co-cultivation, 500 ml of Schenk and Hildebrandt medium containing 1% sucrose, 0.8% agar, 20 mg/L acetosyringone, and with and without 10 μM indoleacetic acid was prepared, pH adjusted to 5.6, autoclaved at 121° C. for 30 minutes, and cooled. Filter-sterilized solutions of acetosyringone, and acetosyringone and indoleacetic acid were added to the cooled medium, to the final, appropriate concentrations. Twenty, 100 mm×15 mm petri dishes were poured from the cooled medium.
# A randomized block, experimental design with 2 bacterial strain treatments×2 frond growth media, with 5 replications, with one petri dish per replication, and 20 fronds per petri dish was used. For inoculation, bacteria of each strain were separately resuspended as described in Example 21. For inoculation, individual fronds were separated from clumps, each turned abaxial side up and wounded with a sterile scalpel in the meristematic regions, then transferred to bacterial suspensions of either AT656 or EHA101pJR1, and incubated for 10–15 minutes. For co-cultivation, fronds were transferred to solid Schenk and Hildebrandt medium with 1% sucrose, 0.8% agar and 100 μM acetosyringone with and without 10 μM indoleacetic acid as described above, abaxial side down.
# The fronds were co-cultivated for 4 days at 23° C. under a 16 hr light/8 hr dark photoperiod with light intensity of approximately 40 μmol/m^2·sec. The fronds from two plates from each of the four treatments were stained for GUS expression.
# Lemna gibba G3 fronds were grown for two weeks on liquid. Schenk and Hildebrandt medium containing 1% sucrose and with or without 10 μM indoleacetic acid in 25 ml aliquots in 125 ml flasks, at 23° C. under a 16 hr light/8 hr dark photoperiod with light intensity of approximately 40 μmol/m^2·sec prior to experimentation. For co-cultivation, 900 ml of Schenk and Hildebrandt medium containing 1% sucrose, 0.8% agar, with and without 10 μM indoleacetic acid, and 20 mg/L acetosyringone was prepared, the pH was adjusted to 5.6, the medium autoclaved at 121° C. for 30 minutes, and cooled. Filter-sterilized solutions of acetosyringone and indoleacetic acid were added to the appropriate, final medium concentrations. Thirty-six, 100 mm×15 mm petri dishes were poured from the cooled medium. Three bacterial media: 1) AB minimal containing 1.6% agar (AB), Difco potato dextrose medium with 1.6% agar (PDA), and mannitol glutamine (Roberts and Kerr, Physiol. […]
# Lemna gibba G3 [4] = experiment: Callus induction from Lemna gibba G3 fronds on solid medium with plant growth regulators; assay type: cell-based
# Protocol: Duckweed fronds were grown in liquid Hoagland's medium (Hoagland and Snyder, Proc. Amer. Soc. Hort. Sci. 30, 288 (1933)) containing 3% sucrose for two weeks at 23° C. under a 16 hr light/8 hr dark photoperiod with light intensity of approximately 40 μmol/m^2·sec prior to experimentation. For callus induction, eighteen, 100 ml portions of Murashige and Skoog basal medium (Murashige and Skoog, Physiol. Plant. 15, 473 (1962)) containing 3% sucrose, 0.15% Gelrite and 0.4% Difco Bacto-agar were prepared with 2,4-D concentrations of 10, 20 and 50 μM and BA concentrations of 0, 0.01, 0.1, 1.0, 2.0, and 10.0 μM. All media were pH adjusted to 5.8, autoclaved at 121° C. for 20 minutes, cooled, and each 100 ml was poured into 4, 100 mm×15 mm petri dishes.
# (§1) A three 2,4-D concentrations×six BA concentrations, full-factorial experimental design (18 treatments in total) with four replications, with one petri dish per replication and 5 fronds per petri dish was used. For callus induction, 5 individual duckweed fronds were placed abaxial side down on each plate of medium. The 72 plates were incubated at 23° C., for 27 days under a 16 hr light/8 hr dark photoperiod with light intensity of approximately 40 μmol/m^2·sec. After 27 days the duckweed tissue was transferred to fresh media of the same type and incubation was continued another 35 days under the same temperature and light culturing conditions.
# Duckweed fronds were grown in liquid Hoagland's medium containing 3% sucrose for two weeks at 23° C. under a 16 hr light/8 hr dark photoperiod with light intensity of approximately 40 μmol/m^2·sec. prior to experimentation. For callus induction, forty 100 ml portions of Murashige and Skoog medium with 3% sucrose, 0.15% Gelrite, and 0.4% Difco Bacto-agar were prepared with dicamba concentrations of 10, 20, 30, 40, 50, 60, 80, 100 μM and BA concentrations of 0.01, 0.05, 0.1, 0.5, and 1.0 μM. All media were pH adjusted to 5.8, autoclaved at 121° C. for 20 minutes, cooled, and each 100 ml was poured into 4, 100 mm×15 mm petri dishes.
# as §1, with “An eight dicamba concentrations×five BA” for “A three 2,4-D concentrations×six BA”, “design (40” for “design (18”, “The” for “The 72”, “After 28” for “After 27”, “another 45” for “another 35”
# Duckweed fronds were grown in liquid Schenk and Hildebrandt medium containing 1% sucrose for two weeks at 23° C. under a 16 hr light/8 hr dark photoperiod with light intensity of approximately 40 μmol/m^2·sec prior to experimentation. For callus induction, three basal media were tested: Murashige and Skoog, Schenk and Hildebrandt, and N6. Benzyladenine was used as the cytokinin at a concentration of 1 μM. The auxin concentrations varied with auxin type. For the relatively strong auxins, 2,4-D and dicamba, concentrations were 0, 1, 5, 10 and 20 μM. For weak auxins, NAA and IBA, the concentrations were 0, 5, 10, 20 and 50 μM. For each medium dose-response experiment, 2 liters of basal medium were prepared with BA and the pH adjusted to 5.8. The volume was aliquoted as 20, 100 ml portions. To each of these portions, the appropriate amount of auxin was added and the medium was adjusted to 0.15% Gelrite, and 0.4% Difco Bacto-agar. The media were autoclaved for 30 minutes at 121° C., cooled and 4, 100 mm×15 mm petri dishes were poured from each 100 ml portion.
# A 3 media×4 auxin×5 concentration combinations, 60 treatment, randomized dose-response experimental design was used. The design was replicated two times, with one petri dish per replication and 5 fronds per petri dish.
# [5] = half-strength SH with 10 μM BA only
smiles,measurement,setting,value
"c1ccc(CNc2ncnc3nc[nH]c23)cc1 [BA, benzyladenine]",callus induction,"[1]; inducing auxin at 2, 5, 10, 20 μM, strains 8744 and 8627",not observed
same,callus growth compared with half-strength SH without plant growth regulators,[2]; [5],callus growth was faster
same,time to frond regeneration compared with half-strength SH,[2]; [5],regeneration took longer
"O=C(O)Cc1c[nH]c2ccccc12 [IAA, indoleacetic acid]",effect on frequency of GUS expression after co-cultivation,"Lemna gibba G3 [3]; fronds grown on 10 μM indoleacetic acid prior to inoculation, 4 days co-cultivation",increased the frequency of GUS expression
same,frequency of GUS expression in meristematic tissue,"Lemna gibba G3 [3]; fronds grown on SH medium with indoleacetic acid, averaged over PDA and MGL bacterial media",approximately 17%
same,co-cultivated fronds showing GUS expression,"Lemna gibba G3 [3]; medium containing 10 μM IAA, 4 days co-cultivation (20% without IAA)",48%
"O=C(O)CCCc1c[nH]c2ccccc12 [IBA, indolebutyric acid]",effect on the timing or ability of callus to regenerate fronds,[2]; 1 μM IBA added to medium with 10 μM BA,had no effect
"O=C(O)Cc1cccc2ccccc12 [NAA, naphthaleneacetic acid]",concentration giving the greatest callus induction,"Lemna gibba G3 [4]; MS medium, 1 μM BA, five weeks",10 µM
"O=C(Nc1ccccc1)Nc1cnns1 [TDZ, thidiazuron]",frequency of callus induction,"Lemna gibba G3 [4]; cytokinin 0-5 μM with 20 μM 2,4-D, MS medium, five weeks",greatest frequency of callus induction
COc1c(Cl)ccc(Cl)c1C(=O)O [dicamba],compact Type I callus induction on MS medium,"Lemna gibba G3 [4]; auxin with 1 μM BA, five weeks",some degree of callus induction
same,compact Type I callus induction on N6 medium,"Lemna gibba G3 [4]; auxin with 1 μM BA, five weeks",produced callus
same,callus proliferation,"Lemna gibba G3 [4]; dicamba 10-100 μM with BA 0.01-1.0 μM, Murashige and Skoog medium, 73 days",callus proliferation was poor
same,concentration above which callus proliferation did not occur,"Lemna gibba G3 [4]; dicamba with BA 0.01-1.0 μM, Murashige and Skoog medium, 73 days",above 30 μM
same,concentration at which callus induction was observed,"[1]; strain 8744, auxin experiment",20 µM
OC[C@@H](O)[C@@H](O)[C@H](O)[C@H](O)CO [mannitol],concentration in bacterial resuspension solution giving the highest frequencies of GUS expression,"Lemna gibba G3 [3]; 0, 0.2, 0.4, 0.6, 0.8 M tested, regardless of media, 4 days co-cultivation in the dark",0.6 M
